From patent US4610977A, “N-alkyl and N-benzyl adriamycin derivatives” (The University of Tennessee Research Corporation, priority 1985, dated 1986)
Read-outs that look alike come from different tables or passages of the source.

Legend:
CCRF-CEM cell line = test: Growth inhibition of CCRF-CEM cells in culture, 48 hours continuous drug exposure; type: cell-based, child with lymphoblastic leukemia; settings: Homo sapiens
Description: The toxicity and therapeutic effectiveness of the new compounds and active agents of the present invention are shown by in vitro assays and by in vivo evaluations in mice. The in vitro assays measure the growth inhibiting activity of the materials against the CCRF-CEM cell line in culture. The cell line was derived from the peripheral blood of a child with lymphoblastic leukemia as described by Foley et al., Cancer, Volume 18, page 522 et seq. (1965), and the assays were carried out by the procedure of Foley and Lazarus, Biochem. Pharmacol., Vol. 16, pages 659 et seq. (1967), the compounds being dissolved in dimethyl sulfoxide and diluted into cell culture media to give a final dimethyl sulfoxide concentration of 1%, the results being reported in terms of the dose in micromoles per liter required to inhibit growth of the cultures by 50% relative to control cultures to which no drug had been added (ID50).
^1 Concentration required to inhibit growth of cultures by 50%
relative to untreated controls; 48 hours continuous drug exposure.

[1] = In vivo antitumor activity against murine P 388 leukemia in B6D2F1 male mice; settings: mouse, ip
Description: (§1) The in vivo evaluations were made by preparing a 0.01 to 0.4% by weight solution of the active agent in an aqueous solution of polyethoxylated castor oil (10% by volume) and ethanol (10% by volume) as a carrier and injecting the dosage intraperitoneally. The evaluations were made of the antitumor activity against the murine P 388 and L1210 leukemias in B6D2F1 male mice essentially according to standard National Cancer Institute protocols as set forth by Geran et al., Cancer Chemotherap. Rep., Part 3, Volume 3, pages 1 et seq.

[2] = In vivo antitumor activity against murine L1210 leukemia in B6D2F1 male mice; settings: mouse, in vivo, ip
Description: as §1

murine L1210 leukemia = test: as above; settings: L1210, qd 1-4; for % ILS (percent median increase in life span relative to untreated controls): at optimal dose (Examples 1/2/3: 12.5/20.0/25.0, adriamycin 3.0 mg/kg); for % ILS (percent median increase in life span relative to untreated controls) / LTS (tumor free long term survivors): ip; for LTS (tumor free long term survivors): at optimal dose, day of sacrifice: Examples 1-3 42
Description: as §1

malignant tumors = settings: cited from earlier work; for Clinical antitumor effectiveness: certain malignant tumors, e.g. induction of remission in acute leukemia; for Toxicities accompanying chemotherapy: limit effectiveness, particularly long-term use
[3] = 48 hours continuous drug exposure, final DMSO 1%, read-out: ID50 (concentration required to inhibit growth of cultures by 50% relative to untreated controls)
[4] = 48 hours continuous drug exposure, read-out: ID50, corresponding compounds having different N-substitution

SMILES	MTD [1] [mg/kg]	MTD [2] [mg/kg]	% ILS (percent median increase in life span relative to untreated controls) (murine L1210 leukemia)	LTS (tumor free long term survivors) (murine L1210 leukemia)	IC50 (CCRF-CEM cell line; [4]) [nM]	also measured
CCCCC(=O)OCC(=O)[C@]1(O)Cc2c(O)c3c(c(O)c2[C@@H](O[C@H]2C[C@H](N(Cc4ccccc4)Cc4ccccc4)[C@H](O)[C@H](C)O2)C1)C(=O)c1c(OC)cccc1C3=O [dibenzyl]	20					IC50 (CCRF-CEM cell line; 48 h, read-out: ID50, corresponding compounds having different N-substitution): > 5000 nM
CCCCC(=O)OCC(=O)[C@]1(O)Cc2c(O)c3c(c(O)c2[C@@H](O[C@H]2C[C@H](N(CCCC)CCCC)[C@H](O)[C@H](C)O2)C1)C(=O)c1c(OC)cccc1C3=O [Example 3, N,N-Di(n-butyl)adriamycin-14-valerate]	30	25	> +350%	5/7		IC50 (CCRF-CEM cell line; [3]): 2100 nM
CCCN(CCC)[C@H]1C[C@H](O[C@H]2C[C@](O)(C(=O)CO)Cc3c(O)c4c(c(O)c32)C(=O)c2c(OC)cccc2C4=O)O[C@@H](C)[C@H]1O [Di-n-propyl]	20					
CCCCC(=O)OCC(=O)[C@]1(O)Cc2c(O)c3c(c(O)c2[C@@H](O[C@H]2C[C@H](NCCC)[C@H](O)[C@H](C)O2)C1)C(=O)c1c(OC)cccc1C3=O [mono-n-propyl, N mono(n-propyl) adriamycin-14-valerate]	15				170	
CCCCC(=O)OCC(=O)[C@]1(O)Cc2c(O)c3c(c(O)c2[C@@H](O[C@H]2C[C@H](N(C)C)[C@H](O)[C@H](C)O2)C1)C(=O)c1c(OC)cccc1C3=O [dimethyl]					20	
CCCCC(=O)OCC(=O)[C@]1(O)Cc2c(O)c3c(c(O)c2[C@@H](O[C@H]2C[C@H](NCc4ccccc4)[C@H](O)[C@H](C)O2)C1)C(=O)c1c(OC)cccc1C3=O [Example 1, N-Benzyladriamycin-14-valerate]	10	12.5	> +350%	5/7		IC50 (CCRF-CEM cell line; [3]): 1000 nM
CCCCC(=O)OCC(=O)[C@]1(O)Cc2c(O)c3c(c(O)c2[C@@H](O[C@H]2C[C@H](N(CCC)CCC)[C@H](O)[C@H](C)O2)C1)C(=O)c1c(OC)cccc1C3=O [Example 2, N,N-Di(n-propyl)adriamycin-14-valerate]	20	20	> +350%	4/7		IC50 (CCRF-CEM cell line; [3]): 1900 nM
COc1cccc2c1C(=O)c1c(O)c3c(c(O)c1C2=O)C[C@@](O)(C(=O)CO)C[C@@H]3O[C@H]1C[C@H](N)[C@H](O)[C@H](C)O1 [Adriamycin]		3	+90%	0/7		All animals dead by day (murine L1210 leukemia; adriamycin 3.0 mg/kg, footnote 4): ≤ 22 days; Clinical antitumor effectiveness (malignant tumors): effective clinically against certain malignant tumors; Clinical efficacy against certain solid tumors (malignant tumors; certain solid tumors): has shown clinical efficacy against certain solid tumors; Toxicities accompanying chemotherapy (malignant tumors): a variety of toxicities
CCCCN(CCCC)[C@H]1C[C@H](O[C@H]2C[C@](O)(C(=O)CO)Cc3c(O)c4c(c(O)c32)C(=O)c2c(OC)cccc2C4=O)O[C@@H](C)[C@H]1O [Di-n-butyl]	25					
CCCCCCN(CCCCCC)[C@H]1C[C@H](O[C@H]2C[C@](O)(C(=O)COC(=O)CCCC)Cc3c(O)c4c(c(O)c32)C(=O)c2c(OC)cccc2C4=O)O[C@@H](C)[C@H]1O [di-n-hexyl]	40				2500	
COc1cccc2c1C(=O)c1c(O)c3c(c(O)c1C2=O)C[C@@](O)(C(=O)CO)C[C@@H]3O[C@H]1C[C@H](NCc2ccccc2)[C@H](O)[C@H](C)O1 [Mono-N--benzyl]	5					
COc1cccc2c1C(=O)c1c(O)c3c(c(O)c1C2=O)C[C@@](O)(C(C)=O)C[C@@H]3O[C@H]1C[C@H](N)[C@H](O)[C@H](C)O1 [daunomycin]						Clinical antitumor effectiveness (malignant tumors): effective clinically against certain malignant tumors; Toxicities accompanying chemotherapy (malignant tumors): a variety of toxicities
CCCCC(=O)OCC(=O)[C@]1(O)Cc2c(O)c3c(c(O)c2[C@@H](O[C@H]2C[C@H](N(CC)CC)[C@H](O)[C@H](C)O2)C1)C(=O)c1c(OC)cccc1C3=O [diethyl]	8				300	
